pIC50: −log10 of the molar value. “Also recorded” adds a separate entry of the source.
How the values were obtained:
A549 cells = assay: cells; assay type: cell-based, human; settings: lung cancer; MTT, 48 h, 37 °C; DMEM + 10% FBS + NEAA; 2,500 cells/well; absorbance 570 nm; n = 3 biologically independent
Procedure: (§1) An MTT (2-(4,5-dimethylthiazol-2-yl)−2,5-diphenyltetrazolium bromide) assay was used to determine the cytotoxicity of lapcin towards diverse cancer cell lines. Lapcin was dissolved in DMSO to make a 3.2 mg/mL working solution. For each cancer line detailed in Supplementary Table 5, cells at 80-90% confluency were counted and seeded in 96-well, flat bottom microplates and incubated at 37 °C with a 5% CO2 atmosphere. Outer wells were unused to avoid edge effects. After adhering for 24 h, the medium was sterilely aspirated and replaced with 100 µL of fresh medium containing lapcin or a control compound serially diluted at concentrations ranging from 8,000 to 0.00382 ng/mL. After 48 h (37 °C, 5% CO2), the medium was carefully removed and 110 µL of freshly prepared MTT solution (10 µL of 5 mg/mL MTT in PBS (pH 7.4) premixed with 100 µL of complete medium) was added to each well. After 3 h at 37 °C with 5% CO2, 100 µL of solubilization solution (40% DMF, 16% SDS and 2% acetic acid in H2O) was added to each well and precipitated formazan crystals were allowed to dissolve for 4 h. The absorbance of each well was then measured at 570 nm using a Tecan microplate reader.

Human Topoisomerase I = target: T1, Human Topoisomerase I (Homo sapiens, UniProt P11387); assay: Topoisomerase I DNA cleavage assay; assay type: biochemical; settings: supercoil pBR322, 30 min, 37 °C; nick DNA; two independent times
T1 construct: purchased Inspiralis, UK
T1 sequence (P11387 1-765): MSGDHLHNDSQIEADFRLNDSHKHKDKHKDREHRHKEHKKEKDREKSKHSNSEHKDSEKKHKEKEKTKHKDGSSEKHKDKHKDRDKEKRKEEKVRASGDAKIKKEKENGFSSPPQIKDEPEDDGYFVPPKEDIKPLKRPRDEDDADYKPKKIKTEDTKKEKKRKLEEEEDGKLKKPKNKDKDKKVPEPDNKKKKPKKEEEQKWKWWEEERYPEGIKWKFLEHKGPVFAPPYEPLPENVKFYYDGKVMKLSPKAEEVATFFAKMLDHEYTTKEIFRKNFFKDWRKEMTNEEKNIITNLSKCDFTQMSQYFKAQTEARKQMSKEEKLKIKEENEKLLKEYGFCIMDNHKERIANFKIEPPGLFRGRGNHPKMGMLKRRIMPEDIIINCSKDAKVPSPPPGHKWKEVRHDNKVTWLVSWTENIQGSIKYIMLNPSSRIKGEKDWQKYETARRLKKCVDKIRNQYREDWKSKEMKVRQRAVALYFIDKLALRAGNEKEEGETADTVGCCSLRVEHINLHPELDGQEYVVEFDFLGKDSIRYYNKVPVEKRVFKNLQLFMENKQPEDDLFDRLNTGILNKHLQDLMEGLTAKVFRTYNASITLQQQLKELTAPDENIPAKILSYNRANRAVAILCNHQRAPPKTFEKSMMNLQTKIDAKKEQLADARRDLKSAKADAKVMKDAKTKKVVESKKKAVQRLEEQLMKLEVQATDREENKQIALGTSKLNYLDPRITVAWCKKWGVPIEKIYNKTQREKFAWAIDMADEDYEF
Procedure: Topoisomerase I/II cleavage assay: A commercial Human topoisomerase cleavage assay kit (Inspiralis, UK) was used in this study with a slight modification. Camptothecin (Sigma, USA) and Etoposide (Sigma, USA) were used as the positive control for topoisomerase I cleavage assay and topoisomerase II cleavage assay, respectively. The assay was performed according to the manufacture’s protocol. Briefly, 29 µL of the master mixture was prepared by adding 3 µL of 10 x assay buffer, 1 µL of 1 µg/µL supercoil pBR322, 1 µL of 30 mM ATP (only used in topoisomerase II cleavage assay), 1.5 µL serial diluted compounds (dissolved in DMSO) and H2O. Finally, 1 µL of 10 U/µL human topoisomerase I/II alpha was added to the reaction mixture. The reaction was incubated for 30 minutes at 37℃. After incubation, 3 µL of 2% (w/v) SDS and 1.5 µL of 10 mg/mL proteinase K was added. The reaction was mixed briefly and incubated for another 30 minutes at 37 ℃. The reaction was stopped by added 10 µL of H2O, 40 µL of STEB stop buffer and 40 µL of Chloroform/isoamyl alcohol (v:v, 24:1). The mixture was vortexed vigorously for 10 secs and centrifuged for 2 minutes. 20 µL of aqueous phase was loaded onto 1% (w/v) agarose gel and separated at 80 V for 2 hours in 0.5% TBE buffer. […]

[1] = tested on: Acinetobacter baumannii ATCC17978; settings: LB, 16 h, 37 °C, n = 2
Procedure: (§2) Lapcin was tested for antimicrobial activity against the bacteria and fungi shown in Supplementary Table 4. […] Lapcin was dissolved in sterile DMSO to make a 3.2 mg/mL working solution. Lapcin was diluted across 96-well plates using a 2-fold serial dilution method to give a concentration range of 64 to 0.06 µg/mL in 50 µL of LB broth. A single colony of each test organism was grown in either 5 mL LB (bacteria) or YPD (fungi) medium overnight at 37 °C or 30 °C, respectively. Saturated overnight cultures were diluted 5,000-fold, and then 50 µL of dilute cells were transferred into each well of the assay plates. Finally, each well contains a total volume of 100 µL.

[2] = tested on: Enterobacter cloacae ATCC13047; settings: LB, 16 h, 37 °C, n = 2
Procedure: as §2

[3] = tested on: Klebsiella pneumonia ATCC10031; settings: LB, 16 h, 37 °C, n = 2
Procedure: as §2

[4] = tested on: Candida albicans ATCC76485; assay: MIC assay, Candida albicans; assay type: cell-based; settings: YPD, 16 h, n = 2
Procedure: as §2

human cancer cell lines = assay: MTT cell viability assay, whole cell line panel; assay type: cell-based
Procedure: as §1

[5] = tested on: diverse microbial pathogens; assay: Antimicrobial/antifungal susceptibility, whole panel; assay type: cell-based; settings: at the highest concentration tested
Procedure: Lapcin was tested for antimicrobial activity against the bacteria and fungi shown in Supplementary Table 4. […] Ciprofloxacin (Sigma, USA) and Nystatin (Sigma, USA) were used as positive control for bacteria and fungi, respectively. Lapcin was dissolved in sterile DMSO to make a 3.2 mg/mL working solution. Lapcin was diluted across 96-well plates using a 2-fold serial dilution method to give a concentration range of 64 to 0.06 µg/mL in 50 µL of LB broth. A single colony of each test organism was grown in either 5 mL LB (bacteria) or YPD (fungi) medium overnight at 37 °C or 30 °C, respectively. Saturated overnight cultures were diluted 5,000-fold, and then 50 µL of dilute cells were transferred into each well of the assay plates. Finally, each well contains a total volume of 100 µL.

CCCCCCCCCCCC(O)CC(=O)N[C@@H](C)C(=O)N[C@@H](CO)C(=O)N[C@@H](C)C(=O)Nc1ccc(-c2nc(-c3nc(C(=O)N[C@@H](CC(N)=O)C(=O)Nc4ccc(C(=O)Nc5ccc(C(=O)Nc6ccc(C(=O)O)cc6)c(O)c5OC(C)C)cc4)cs3)cs2)cc1 (stereo partly drawn) [Lapcin, 4-(4-(4-((2S)-4-amino-2-(2'-(4-((2S)-2-((2S)-3-hydroxy-2-((2S)-2-(3-hydroxytetradecanamido)propanamido)propanamido)propanamido)phenyl)-[2,4'-bithiazole]-4-carboxamido)-4-oxobutanamido)benzamido)-2-hydroxy-3-isopropoxybenzamido)benzoic acid]
pIC50 (A549 cells): 8.58
accumulation of cleavage product, Topo I (Human Topoisomerase I): did not observe the accumulation of a cleavage product
MIC, Acinetobacter baumannii [1]: > 32 µg/mL
MIC, Enterobacter cloacae [2]: > 32 µg/mL
MIC, Klebsiella pneumonia [3]: > 32 µg/mL
MIC, Candida albicans [4]: > 32 µg/mL
difference in IC50 between non-cancerous HEK293 and most susceptible cell lines (human cancer cell lines; Table 1 IC50s, therapeutic window): over 3 orders of magnitude
potency relative to etoposide in cell lines (human cancer cell lines; all cell lines except NCI-H226): more potent than the topoisomerase II inhibitor etoposide
cytotoxic potency (IC50) in words (human cancer cell lines; breast, lung, colon, bone and cervical cancer cell lines, MTT, 48 h): nM to pM IC50s; also recorded: potent human cancer cell line toxin; also recorded: nM to pM (IC50) inhibitor
potency relative to camptothecin in cell lines (human cancer cell lines; exception of HCT116, HCC1806 and NCI-H226): more potent than the topoisomerase I inhibitor camptothecin
correlation of activity with p53 expression (human cancer cell lines; reported p53 expression levels of the cell lines tested): general correlation between lapcin activity and reported p53 expression levels
antimicrobial or antifungal activity [5]: no antimicrobial or antifungal activity
